In patent US10501449B2 (priority 2018, dated 2019) one finds IC50 and inhibition data, which are given here for 23 compounds.

Data set [1] concerns the target T1, hROMK (human Kir1.1) (Homo sapiens (Human), UniProt P48048). Put plainly: cell-based. To be noted: CHO T-Rex hROMK stable cell line; thallium flux; 10-point concentration response curve; read-out: Human ROMK Th Flux IC50.
Data set [2] has as its target T1, hROMK (human Kir1.1). Put plainly: cell-based. In kind it is cell-based. Conditions: whole-cell manual patch clamp, CHO T-Rex hROMK stable cell line, voltage step to -120 mV, Ba2+-subtracted hROMK current; read-out: ROMK EP IC50. (In general: The patch-clamp technique gives a direct electrical read-out from membranes.)
Procedure: ROMK Manual Patch Clamp Assay
Cell culture conditions: Cells were maintained in conditions similar to those for Thallium flux assay. hROMK channel expression was induced by adding 0.6 μg/ml of Doxycycline 16-24 hrs prior to the experiments. On the day of experiment, the cells were dissociated using Versene, resuspended in growth media and plated onto coverslips 15 minutes prior to use.
Electrophysiology: The coverslip plated with cells was placed in the experiment chamber perfused with bath solution composed of (in mM): 135 NaCl, 5 KCl, 2 CaCl2, 1 MgCl2, 10 HEPES, 5 Glucose (pH 7.4). Patch pipettes with resistance between 2-5 Megaohms, when filled with a solution containing (in mM): 135 KCl, 1 EGTA, 1 MgCl2, 10 HEPES, 2 Na2ATP (pH 7.3), were used to form gigaseals. The cells were voltage clamped at −75 mV in whole-cell configuration using an Axopatch 200b or Multiclamp 700b (Molecular Devices) amplifier controlled by pClamp Software (Molecular Devices). The current was recorded by applying a voltage step to −120 mV every 10 seconds. […] At the end of the experiment, the cells were perfused with bath solution containing 2 mM Ba^2+ to isolate the contribution of hROMK current.
Data analysis: Raw current values (5 traces each for control, different compound concentration and Ba^2+ treatment groups) were exported from Clampfit into Microsoft Excel where the current remaining after application of Ba^2+ was subtracted from raw current to obtain hROMK specific current.
The target of data set [3] is hERG channels (Homo sapiens (Human), UniProt Q12809). Put plainly: hERG Manual Patch Clamp Assay. The format is cell-based. Conditions: human, HEK 293 cells stably expressing hERG channels, pH 7.4, 1 uM, read-out: hERG EP % Inh @ 1 uM. (Block of hERG is tested as a sign of cardiac risk.)
Sequence of hERG channels (Q12809 whole entry): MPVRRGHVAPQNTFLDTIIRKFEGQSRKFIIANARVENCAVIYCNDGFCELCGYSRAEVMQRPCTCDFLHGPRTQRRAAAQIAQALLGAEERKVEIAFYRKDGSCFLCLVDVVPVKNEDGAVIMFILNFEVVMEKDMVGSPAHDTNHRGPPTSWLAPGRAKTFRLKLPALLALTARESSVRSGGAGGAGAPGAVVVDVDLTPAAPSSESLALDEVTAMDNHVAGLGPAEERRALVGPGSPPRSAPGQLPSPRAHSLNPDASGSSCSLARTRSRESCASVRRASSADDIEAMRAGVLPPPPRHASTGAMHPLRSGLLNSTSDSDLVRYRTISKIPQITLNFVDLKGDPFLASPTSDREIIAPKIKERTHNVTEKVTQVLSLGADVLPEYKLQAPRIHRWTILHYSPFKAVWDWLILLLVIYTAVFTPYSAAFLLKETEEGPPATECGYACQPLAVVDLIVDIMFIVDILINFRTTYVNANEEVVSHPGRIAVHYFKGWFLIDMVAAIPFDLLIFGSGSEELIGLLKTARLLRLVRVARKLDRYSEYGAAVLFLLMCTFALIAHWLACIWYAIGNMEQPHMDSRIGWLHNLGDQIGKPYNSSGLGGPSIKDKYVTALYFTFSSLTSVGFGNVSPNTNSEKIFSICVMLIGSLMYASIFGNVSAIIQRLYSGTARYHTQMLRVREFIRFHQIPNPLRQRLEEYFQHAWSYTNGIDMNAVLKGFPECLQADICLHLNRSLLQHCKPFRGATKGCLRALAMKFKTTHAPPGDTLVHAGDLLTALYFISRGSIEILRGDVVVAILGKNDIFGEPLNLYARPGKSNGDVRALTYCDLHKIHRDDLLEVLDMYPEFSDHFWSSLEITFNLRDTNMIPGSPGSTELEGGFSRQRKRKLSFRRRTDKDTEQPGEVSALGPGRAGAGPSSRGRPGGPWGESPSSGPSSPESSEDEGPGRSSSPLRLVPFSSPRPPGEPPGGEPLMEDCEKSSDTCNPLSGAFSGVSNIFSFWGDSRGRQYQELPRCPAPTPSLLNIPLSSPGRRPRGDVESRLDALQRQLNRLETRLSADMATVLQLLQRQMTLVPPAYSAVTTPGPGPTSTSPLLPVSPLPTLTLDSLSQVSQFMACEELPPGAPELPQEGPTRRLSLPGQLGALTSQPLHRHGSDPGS
Procedure: hERG electrophysiology assay: The experimental compounds were assessed for hERG activity on HEK 293 cells stably expressing hERG channels using patch clamp technique. Coverslips plated with hERG expressing cells were placed in the experimental chamber and were perfused with a solution composed of (in mM): 140 NaCl, 4 KCl, 1.8 CaCl2, 1 MgCl2, 10 Glucose, 10 HEPES (pH 7.4, NaOH) at room temperature. Borosilicate patch pipettes had tip resistances of 2-4 Mohms when filled with an internal solution containing: 130 KCl, 1 MgCl2, 1 CaCl2, 10 EGTA, 10 HEPES, 5 ATP-K2 (pH 7.2, KOH). The cells were clamped at −80 mV in whole cell configuration using an Axopatch 200B (Axon instruments, Union City, Calif.) patch clamp amplifier controlled by pClamp (Axon instruments) software. Upon formation of a gigaseal, the following voltage protocol was repeatedly (0.05 Hz) applied to record tail currents: depolarization step from −80 mV to +20 mV for 2 seconds followed by a hyperpolarization step to −65 mV (3 seconds) to elicit tail currents. Compounds were applied after stabilization of tail current. First, tail currents were recorded in presence of extracellular solution alone (control) and subsequently, in extracellular solution containing increasing compound concentrations. Each compound concentration was applied for 2-5 minutes. The percentage inhibition at each concentration was calculated as reduction in peak tail current with respect to the peak tail current recorded in the presence of control solution. Data analysis was performed in a custom made template. The percent inhibitions at different concentrations were plotted to obtain a concentration response curve, which was subsequently fitted with a four parameter equation to calculate hERG IC50 value.

Each structure is given as a SMILES string. Where two headings read alike, the source gives them in different places.

The IC50 is the concentration that gives 50% inhibition.

T1 sequence (P48048 whole entry): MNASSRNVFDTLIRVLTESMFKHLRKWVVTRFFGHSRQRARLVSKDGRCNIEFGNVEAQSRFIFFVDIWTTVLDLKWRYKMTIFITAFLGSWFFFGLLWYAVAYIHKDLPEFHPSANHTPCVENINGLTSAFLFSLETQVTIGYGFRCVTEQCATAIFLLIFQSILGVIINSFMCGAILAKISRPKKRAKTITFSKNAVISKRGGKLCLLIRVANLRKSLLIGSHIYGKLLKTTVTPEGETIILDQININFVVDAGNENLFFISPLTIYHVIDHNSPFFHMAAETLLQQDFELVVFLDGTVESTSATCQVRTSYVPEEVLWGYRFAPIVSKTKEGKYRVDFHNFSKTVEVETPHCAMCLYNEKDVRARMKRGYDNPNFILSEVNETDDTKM

Regarding `Cc1cc(-n2ncc(C(C)N3CCN[C@H](c4ccc5c(c4C)COC5=O)C3)n2)ncc1C#N` (single isomer, unassigned) [Example 121-I], the IC50 in data set [1] worked out at 31 nM; in data set [2], 740 nM. The inhibition at 1 µM in data set [3] stood at 10%.

Regarding `Cc1cc(-n2nc(C)c(CN3CC(c4ccc5c(c4C)COC5=O)NC(C)(C)C3)n2)ncc1C#N` (single isomer, unassigned) [Example 175-I, 6-(4-((3,3-dimethyl-5-(4-methyl-1-oxo-1,3-dihydroisobenzofuran-5-yl)piperazin-1-yl)methyl)-5-methyl-2H-1,2,3-triazol-2-yl)-4-methylnicotinonitrile], the values for the IC50 in data set [1] and in data set [2] were 31 nM and 17 nM, respectively. In data set [3], the inhibition at 1 µM is 15%.

As to `COc1cc(-n2ncc(CN3CC(c4ccc5c(c4C)COC5=O)NC(C)(C)C3)n2)ncc1C#N` (single isomer, unassigned) [Example 190-I, 6-(4-((3,3-dimethyl-5-(4-methyl-1-oxo-1,3-dihydroisobenzofuran-5-yl)piperazin-1-yl)methyl)-2H-1,2,3-triazol-2-yl)-4-methoxynicotinonitrile], the values for the 50% inhibitory concentration (IC50) in data set [1] and in data set [2] were 17 nM and 13 nM, respectively. In addition, in data set [3], the inhibition at 1 µM came to 9.1%.

For `Cc1cc(-n2cc(CN3CC(c4ccc5c(c4C)COC5=O)NCC3C)cn2)ncc1C#N` (single isomer, unassigned) [Example 244-II, 4-methyl-6-(4-((2-methyl-5-(4-methyl-1-oxo-1,3-dihydroisobenzofuran-5-yl)piperazin-1-yl)methyl)-1H-pyrazol-1-yl)nicotinonitrile], the IC50 came out at 17 nM in data set [1] and 22 nM in data set [2].

Take `Cc1cc(-c2nnc(CN3CC(c4ccc5c(c4C)COC5=O)NC(C)(C)C3)o2)ncc1C#N` (single isomer, unassigned) [Example 267-I, 6-(5-((3,3-dimethyl-5-(4-methyl-1-oxo-1,3-dihydroisobenzofuran-5-yl)piperazin-1-yl)methyl)-1,3,4-oxadiazol-2-yl)-4-methylnicotinonitrile]: the IC50 amounted to 16 nM in data set [1] and 17 nM in data set [2]. The inhibition at 1 µM in data set [3] is 9.9%.

Consider `Cc1cc(-n2cc(CN3CCO[C@H](c4ccc5c(c4C)COC5=O)C3)cn2)ncc1C#N` [Example 1-I, (R)-4-methyl-6-(4-((2-(4-methyl-1-oxo-1,3-dihydroisobenzofuran-5-yl)morpholino)methyl)-1H-pyrazol-1-yl)nicotinonitrile], for which the 50% inhibitory concentration (IC50) in data set [1] is 14 nM; in data set [2] it was 11 nM. Moreover, the inhibition at 1 µM in data set [3] was 26%.

Consider `Cc1c([C@@H]2CN(Cc3ccc(-c4ccc5oc(=O)n(C)c5c4)nc3)CCO2)ccc2c1COC2=O` [Example 3-I, (R)-3-methyl-5-(5-((2-(4-methyl-1-oxo-1,3-dihydroisobenzofuran-5-yl)morpholino)methyl)pyridin-2-yl)benzo[d]oxazol-2(3H)-one], for which the concentration for half-maximal inhibition (IC50) in data set [1] stood at 210 nM; in data set [2] it was 44 nM. The inhibition at 1 µM in data set [3] came to 26%.

Take `COc1cc(-n2cnc(CN3CCN[C@H](c4ccc5c(c4C)COC5=O)C3)c2)ncc1C#N` [Example 14-I, (R)-4-methoxy-6-(4-((3-(4-methyl-1-oxo-1,3-dihydroisobenzofuran-5-yl)piperazin-1-yl)methyl)-1H-imidazol-1-yl)nicotinonitrile]: the IC50 in data set [1] stood at 36 nM; in data set [2] it was 51 nM. Besides, the inhibition at 1 µM in data set [3] is 1.7%.

`Cc1cn(-c2ccc(CN3CCO[C@H](c4ccc5c(c4C)COC5=O)C3)cn2)cn1` [Example 16-I, (R)-4-methyl-5-(4-((6-(4-methyl-1H-imidazol-1-yl)pyridin-3-yl)methyl)morpholin-2-yl)isobenzofuran-1(3H)-one]: the IC50 in data set [1] is 33 nM; in data set [2] it was 11 nM. Besides, the inhibition at 1 µM in data set [3] came to 7.3%.

Consider `Cc1cc(-n2cc(CN3CCN[C@H](c4ccc5c(c4C)COC5=O)C3)nn2)ncc1C#N` [Example 23-I, (R)-4-methyl-6-(4-((3-(4-methyl-1-oxo-1,3-dihydroisobenzofuran-5-yl)piperazin-1-yl)methyl)-1H-1,2,3-triazol-1-yl)nicotinonitrile], for which the values for the 50% inhibitory concentration (IC50) in data set [1] and in data set [2] were 30 nM and 4.9 nM, respectively. The inhibition at 1 µM in data set [3] was 12%.

Turning to `COc1cc(-n2cc(CN3CCN[C@H](c4ccc5c(c4C)COC5=O)C3)cn2)ncc1C#N` [Example 59-I, (R)-4-methoxy-6-(4-((3-(4-methyl-1-oxo-1,3-dihydroisobenzofuran-5-yl)piperazin-1-yl)methyl)-1H-pyrazol-1-yl) nicotinonitrile], the concentration for half-maximal inhibition (IC50) in data set [1] was found to be 20 nM; in data set [2] it was 4.8 nM. In addition, the inhibition at 1 µM in data set [3] was 15%.

Take `Cc1c([C@@H]2CN(Cc3cn(-c4ccc5oc(=O)n(C)c5c4)nn3)CCN2)ccc2c1COC2=O` [Example 61-I, (R)-3-methyl-5-(4-((3-(4-methyl-1-oxo-1,3-dihydroisobenzofuran-5-yl)piperazin-1-yl)methyl)-1H-1,2,3-triazol-1-yl)benzo[d]oxazol-2 (3H)-one]: the IC50 in data set [2] came to 40 nM.

In the case of `Cc1c([C@@H]2CN(Cc3ccc(-n4cnc(C#N)c4)nc3)CCN2)ccc2c1COC2=O` [Example 65-I, (R)-1-(5-((3-(4-methyl-1-oxo-1,3-dihydroiso-benzofuran-5-yl)piper-azin-1-yl)methyl)pyri-din-2-yl)-1H-imidazole-4-carbonitrile], the IC50 in data set [1] is 14 nM; in data set [2] it was 9.8 nM. Also, the inhibition at 1 µM in data set [3] is 21%.

For the compound `Cc1cn(-c2ccc(CN3CCN[C@H](c4ccc5c(c4C)COC5=O)C3)cn2)cn1` [Example 66-I, (R)-4-methyl-5-(4-((6-(4-methyl-1H-imidazol-1-yl)pyridin-3-yl)methyl)piperazin-2-yl)iso-benzofuran-1(3H)-one], the IC50 in data set [1] was determined as 33 nM; in data set [2], 4.7 nM. Further, in data set [3], the inhibition at 1 µM is 0%.

Consider `Cc1ncn(-c2ccc(CN3CCN[C@H](c4ccc5c(c4C)COC5=O)C3)cn2)n1` [Example 67-I, (R)-4-methyl-5-(4-((6-(3-methyl-1H-1,2,4-tri-azol-1-yl)pyridin-3-yl)methyl)piperazin-2-yl) isobenzofuran-1(3H)-one], for which the half-inhibitory concentration (IC50) worked out at 110 nM in data set [1] and 29 nM in data set [2]. For the same compound, the inhibition at 1 µM in data set [3] was 7.1%.

Turning to `Cc1ncn(-c2ncc(CN3C[C@@H](c4ccc5c(c4C)COC5=O)N[C@@H](C)C3)cn2)c1C` [Example 94-I, 5-((2R,6S)-4-((2-(4,5-dimethyl-1H-imidazol-1-yl)pyrimidin-5-yl)methyl)-6-methylpiperazin-2-yl)-4-methylisobenzofuran-1(3H)-one], the IC50 in data set [1] amounted to 39 nM; in data set [2], 14 nM. The inhibition at 1 µM in data set [3] is 4.3%.

In the case of `COc1cc(-n2cnc(CN3C[C@@H](c4ccc5c(c4C)COC5=O)N[C@@H](C)C3)c2)ncc1C#N` [Example 97-I, 4-methoxy-6-(4-(((3S,5R)-3-methyl-5-(4-methyl-1-oxo-1,3-dihydroisobenzofur-an-5-yl)piperazin-1-yl)methyl)-1H-imidazol-1-yl)nicotinonitrile], the IC50 in data set [1] is 28 nM; in data set [2] it was 43 nM.

As for `COc1nc(-n2cc(CN3C[C@@H](c4ccc5c(c4C)COC5=O)N[C@@H](C)C3)cn2)ncc1C#N` [Example 99-I, 4-methoxy-2-(4-(((3S,5R)-3-methyl-5-(4-methyl-1-oxo-1,3-dihydroisobenzofur-an-5-yl)piperazin-1-yl)methyl)-1H-pyrazol-1-yl)pyrimidine-5-carbonitrile], the IC50 in data set [1] stood at 33 nM; in data set [2], 29 nM. Besides, the inhibition at 1 µM in data set [3] stood at 9.6%.

With `Cc1nc(-n2ncc(CN3C[C@@H](c4ccc5c(c4C)COC5=O)N[C@@H](C)C3)n2)ncc1C#N` [Example 100-I, 4-methyl-2-(4-(((3S,5R)-3-methyl-5-(4-methyl-1-oxo-1,3-dihydroisobenzofur-an-5-yl)piperazin-1-yl)methyl)-2H-1,2,3-triazol-2-yl)pyrimidine-5-carbonitrile], the values for the concentration for half-maximal inhibition (IC50) in data set [1] and in data set [2] were 40 nM and 25 nM, respectively. Moreover, in data set [3], the inhibition at 1 µM worked out at 3.6%.

On to `COc1cc(-n2cnc(CN3C[C@@H](c4ccc5c(c4C)COC5=O)N[C@@H](C)C3)c2)ccc1C#N` [Example 101-I, 2-methoxy-4-(4-(((3S,5R)-3-methyl-5-(4-methyl-1-oxo-1,3-dihydroisobenzofur-an-5-yl)piperazin-1-yl)methyl)-1H-imidazol-1-yl)benzonitrile], for which the IC50 in data set [1] was determined as 26 nM; in data set [2] it was 34 nM. Besides, the inhibition at 1 µM in data set [3] worked out at 3%.

`Cc1cc(-n2cc(CN3C[C@@H](c4ccc5c(c4C)COC5=O)N[C@@H](C)C3)cn2)ccn1` [Example 102-I, 4-methyl-5-((2R,6S)-6-methyl-4-((1-(2-methylpyridin-4-yl)-1H-pyrazol-4-yl)methyl)piperazin-2-yl)isobenzofuran-1(3H)-one]: the IC50 in data set [1] was determined as 48 nM; in data set [2], 17 nM. The inhibition at 1 µM in data set [3] was 5.6%.

For `Cc1cc(-n2cc(CN3C[C@@H](c4ccc5c(c4C)COC5=O)N[C@@H](C)C3)nn2)ncc1C#N` [Example 106-I, 4-methyl-6-(4-(((3S,5R)-3-methyl-5-(4-methyl-1-oxo-1,3-dihydroisobenzofur-an-5-yl)piperazin-1-yl)methyl)-1H-1,2,3-triazol-1-yl)nicotinonitrile], the IC50 in data set [2] is 10 nM. Further, in data set [3], the inhibition at 1 µM stood at 0.98%.

As to `Cc1c([C@@H]2CN(Cc3cnn(-c4ccc5oc(=O)n(C)c5c4)n3)C[C@H](CO)N2)ccc2c1COC2=O` [Example 109-I, 5-(4-(((3R,5R)-3-(hydroxymethyl)-5-(4-methyl-1-oxo-1,3-dihydroisobenzofur-an-5-yl)piperazin-1-yl)methyl)-2H-1,2,3-triazol-2-yl)-3-methylbenzo[d]oxa-zol-2(3H)-one], in data set [2], the half-inhibitory concentration (IC50) turned out to be 54 nM. The inhibition at 1 µM in data set [3] came out at 3.6%.
